Experimental data: the Deep4Chem optical property database
Values belong to the molecule of their own block, whether it stands above or below them.

Experiment: solvent given as SMILES
[1] = in c1cc(-n2c3ccccc3c3ccccc32)cc(-n2c3ccccc3c3ccccc32)c1

SMILES: c1ccc(-c2nc(-c3cc(-n4c5ccccc5c5ccccc54)cc(-n4c5ccccc5c5ccccc54)c3)nc(-c3cc(-n4c5ccccc5c5ccccc54)cc(-n4c5ccccc5c5ccccc54)c3)n2)cc1
- emission maximum (in C1CCCCC1): 438.78 nm
- emission maximum (in C1CCOC1): 595.92 nm
- emission maximum (in Cc1ccccc1): 504.9 nm

SMILES: N#Cc1cccc(N)c1
- emission maximum (in C1CCCCC1): 343 nm
- emission maximum (in CC#N): 369.45 nm
- emission maximum (in CCCCCC): 339.87 nm
- emission maximum (in CCO): 384 nm
- emission maximum (in O): 392 nm
- emission maximum (in OCC(F)(F)F): 380 nm

SMILES: CCCN1c2ccccc2Sc2cc(/C=C\c3cc(=O)oc4cc(NC(=O)OCC)ccc34)ccc21
- emission maximum (in ClC(Cl)Cl): 635 nm

SMILES: CN(C)c1ccc(/C=C/C=C/c2ccc([N+](=O)[O-])c(O)c2)cc1
- emission maximum (in C1CCCCC1): 530 nm
- emission maximum (in C1CCOC1): 686 nm
- emission maximum (in C1COCCO1): 634 nm
- emission maximum (in CCCCCCC): 523 nm
- emission maximum (in Cc1ccccc1): 609 nm

SMILES: O=[N+]([O-])c1ccc([N+]2=Cc3ccc4c5c(ccc4c3O[B-]2(c2ccccc2)c2ccccc2)C=[N+](c2ccc([N+](=O)[O-])cc2)[B-](c2ccccc2)(c2ccccc2)O5)cc1
- emission maximum (in Cc1ccccc1): 643 nm
- emission maximum (in ClCCl): 642 nm

SMILES: CCOC(=O)C1=C(C(=O)OCC)C2(c3ccccc3-c3c(Br)cc(Br)cc32)C2(/C=C/c3ccc(Cl)cc3)c3cc(OC)c(OC)cc3CCN12 (stereo not drawn)
- emission maximum (in ClCCl): 495 nm

SMILES: CC1=CC(C)=[N+]2C1=C(C1=C(C)C3=C(C)c4c(C)cc(C)n4[B-](F)(F)[N+]3=C1C)c1c(C)cc(C)n1[B-]2(F)F
- emission maximum (in ClC(Cl)Cl): 527 nm

SMILES: CCOC(=O)c1c(C=Cc2ccccc2)oc(NC2CCCCC2)c1C(=O)OCC
- emission maximum (in CC#N): 460 nm

SMILES: N#Cc1ccc2nc3[nH]c(=O)[nH]c(=O)c3nc2c1
- emission maximum (in ClCCCl): 420 nm

SMILES: CC(C)(C)c1ccc(C2=C(Br)C3=C(c4ccccc4)c4c(Br)c(-c5ccc(C(C)(C)C)cc5)c(-c5ccc(C(C)(C)C)cc5)n4[B-](F)(F)[N+]3=C2c2ccc(C(C)(C)C)cc2)cc1
- emission maximum (in C1CCCCC1): 614 nm
- emission maximum (in C1CCOC1): 617 nm
- emission maximum (in CC#N): 613 nm
- emission maximum (in Cc1ccccc1): 618 nm
- emission maximum (in ClCCl): 619 nm

SMILES: COc1ccc(-c2ccc3c(c2)c2cc(-c4ccc(OC)cc4)ccc2n3-c2ccc(C(=O)c3ccc4sc5ccccc5c4c3)cn2)cc1
- emission maximum (in Cc1ccccc1): 479.23 nm
- emission maximum [1]: 484 nm

SMILES: CC1=[N+]2C(=C(NC(C)c3ccccc3)c3ccc(C)n3[B-]2(F)F)C=C1c1cc2n(c1)[B-](F)(F)[N+]1=CC=CC1=C2c1c(C)cc(C)cc1C (stereo not drawn)
- emission maximum (in C1CCCCC1): 640 nm
- emission maximum (in CCOC(C)=O): 700 nm

SMILES: c1cc2c3cscc3c3ccsc3c2s1
- emission maximum (in ClC(Cl)Cl): 395 nm

SMILES: Cc1ccc(-c2cc(-c3ccc(N(C)C)cc3)c3c(N)nc(N4CCCC4)c(C#N)c3n2)cc1
- emission maximum (in CC#N): 514 nm
- emission maximum (in CC(C)=O): 511 nm
- emission maximum (in CC(C)O): 506 nm
- emission maximum (in CO): 517 nm
- emission maximum (in ClC(Cl)Cl): 496 nm
- emission maximum (in ClCCl): 503 nm
- emission maximum (in c1ccccc1): 500 nm

SMILES: c1cc2c3c(cccc3c1)-c1c-2c2c3ccccc3c3ccc4c5c6c(c7c8ccccc8c8ccc9c%10c%11c(c%12c%13ccccc%13c%13ccc%14c1c1c2c3c4c2c1c1c%14c%13c%12c%10c1c1c9c8c7c5c21)-c1cccc2cccc-%11c12)-c1cccc2cccc-6c12
- emission maximum (in C1CCOC1): 594 nm

SMILES: CN(C)c1ccc2nc3c(cc2c1)c(-c1ccccc1)nn3-c1ccccc1
- emission maximum (in C1CCCCC1): 444.44 nm
- emission maximum (in C1CCOC1): 534.19 nm
- emission maximum (in CC#N): 561.48 nm
- emission maximum (in CC(C)=O): 552.79 nm
- emission maximum (in CCCCCl): 516 nm
- emission maximum (in CCCCOCCCC): 498.75 nm
- emission maximum (in CN(C)C=O): 566.89 nm

SMILES: O=c1c2ccccc2n2c3ccccc3c(=O)c3cc(-c4ccccc4)cc1c32
- emission maximum (in CC#N): 475 nm
- emission maximum (in CCCCCC): 447 nm
- emission maximum (in CCCCOCCCC): 454 nm
- emission maximum (in CCOC(C)=O): 464 nm
- emission maximum (in CN(C)C=O): 477 nm
- emission maximum (in Cc1ccccc1): 464.98 nm
- emission maximum (in c1cc(-c2cccc(-n3c4ccccc4c4ccccc43)c2)cc(-n2c3ccccc3c3ccccc32)c1): 472 nm
- emission maximum [1]: 472 nm

SMILES: COc1cccc(C2=c3c(c4ccc(C(C)(C)C)cc4c4cc(C(C)(C)C)ccc34)=[N+]3C2=C(c2ccccc2)c2c(-c4cccc(OC)c4)c4c5ccc(C(C)(C)C)cc5c5cc(C(C)(C)C)ccc5c4n2[B-]3(F)F)c1
- emission maximum (in C1CCCCC1): 727 nm
- emission maximum (in C1CCOC1): 737 nm
- emission maximum (in CC#N): 721 nm
- emission maximum (in Cc1ccccc1): 730 nm
- emission maximum (in ClCCl): 737 nm

SMILES: O=C1c2ccccc2-c2cnccc21
- emission maximum (in CC#N): 516.76 nm
- emission maximum (in CCCCCC): 464.17 nm

SMILES: COC(=O)c1ccc2ccc3cccc4ccc1c2c34
- emission maximum (in C1CCOC1): 388 nm
- emission maximum (in CC#N): 389 nm
- emission maximum (in CCCCCC): 385 nm
- emission maximum (in CCO): 391 nm
- emission maximum (in CN(C)C=O): 391 nm
- emission maximum (in CO): 392 nm
- emission maximum (in Cc1ccccc1): 390 nm
- emission maximum (in ClCCl): 390 nm

SMILES: O=c1cc(C(F)(F)F)c2cc3c4c(c2o1)CCCN4CCC3
- emission maximum (in C1CCCCC1): 455 nm
- emission maximum (in CC#N): 521 nm
- emission maximum (in CCO): 531 nm
- emission maximum (in CCOC(C)=O): 501 nm
- emission maximum (in OCC(O)CO): 546 nm

SMILES: Cc1cccc(C2=CC3=C(c4c(C)cc(C)cc4C)c4cc(-c5cccc(C)c5)c(-c5cccc(C)c5)n4[B-](F)(F)[N+]3=C2c2cccc(C)c2)c1
- emission maximum (in C1CCCCC1): 625 nm
- emission maximum (in C1CCOC1): 626 nm
- emission maximum (in CC#N): 620 nm
- emission maximum (in Cc1ccccc1): 628 nm
- emission maximum (in ClCCl): 627 nm

SMILES: CC(C)(C)c1ccc(Oc2cc3c4c(cc(Oc5ccc(C(C)(C)C)cc5)c5c6c(Oc7ccc(C(C)(C)C)cc7)cc7c8c(cc(Oc9ccc(C(C)(C)C)cc9)c(c2c45)c86)C(=O)N(c2ccccc2)C7=O)C(=O)N(c2ccccc2)C3=O)cc1
- emission maximum (in ClC(Cl)Cl): 617 nm

SMILES: c1ccc(-c2nc(-c3ccccc3)nc(-c3ccc(N4c5ccccc5C(c5ccccc5)(c5ccccc5)c5ccccc54)cc3)n2)cc1
- emission maximum (in O=P(c1ccccc1)(c1ccccc1)c1ccccc1Oc1ccccc1P(=O)(c1ccccc1)c1ccccc1): 472.98 nm

SMILES: C(=C(c1ccccc1)c1ccccc1)c1ccc(-c2cc(-c3ccc(C=C(c4ccccc4)c4ccccc4)cc3)c(-c3ccc(C=C(c4ccccc4)c4ccccc4)cc3)cc2-c2ccc(C=C(c3ccccc3)c3ccccc3)cc2)cc1
- emission maximum (in C1CCOC1): 440 nm

SMILES: Clc1cc(Cl)c([C](c2c(Cl)cc(Cl)cc2Cl)c2c(Cl)cc(-n3c4ccccc4c4ccccc43)cc2Cl)c(Cl)c1
- emission maximum (in C1CCCCC1): 628 nm
- emission maximum (in ClC(Cl)Cl): 680 nm

SMILES: N#Cc1c(C#N)c2cc(Cl)ccc2c2ccc(Cl)cc12
- emission maximum (in ClC(Cl)Cl): 388 nm

SMILES: CCCCCCOc1cc(/C=C/c2cc(OCCCCCC)c(/C=C/c3cc(OCCCCCC)c(C=O)cc3OCCCCCC)cc2OCCCCCC)c(OCCCCCC)cc1C=O
- emission maximum (in ClCCl): 521 nm

SMILES: CCCCN1C(=O)c2c(Br)c(Br)c3c4c(Br)c(Br)c5c6c(c(Br)c(Br)c(c7c(Br)c(Br)c(c2c37)C1=O)c64)C(=O)N(CCCC)C5=O
- emission maximum (in ClC(Cl)Cl): 600 nm

SMILES: Nc1cccc2cccc(N)c12
- emission maximum (in CC#N): 413 nm
- emission maximum (in CO): 427 nm
- emission maximum (in CS(C)=O): 411 nm
- emission maximum (in Cc1ccccc1): 403 nm

More lines, now with the values ahead:

- emission maximum (in ClCCl): 482 nm
SMILES: c1ccc(N(c2ccccc2)c2ccc(-c3ccncn3)cc2)cc1

- emission maximum (in ClCCl): 531 nm
SMILES: CCCCN1C(=O)C2=C(c3ccc(Br)cc3)NC(=O)C2=C1c1ccc(Br)cc1

- emission maximum (in C1CCOC1): 457 nm
SMILES: COc1ccc(C2=C(c3ccc(OC)cc3)[Si](c3ccccc3)(c3ccccc3)c3ccccc32)cc1

- emission maximum (in C1CCCCC1): 470 nm
SMILES: Cc1cc(C)c(B2c3cc(C(C)(C)C)ccc3-c3c(-c4ccccc4)ccc4cc(C(C)(C)C)cc2c34)c(C)c1

- emission maximum (in ClCCl): 504 nm
SMILES: COC(=O)c1[nH]c(-c2ccc(OC)cc2)c2nnc3ccc(OC)cc3c12

- emission maximum (in C1CCOC1): 642 nm
SMILES: Cc1ccc(C2=C3C=C4C(=[N+]3[B-](F)(F)n3c2cc2c3-c3ccccc3C23c2ccccc2-c2ccccc23)c2ccccc2C42c3ccccc3-c3ccccc32)cc1

- emission maximum (in ClC(Cl)Cl): 433 nm
SMILES: O=C1CC(c2ccc(C(F)(F)F)cc2)c2c(c3ccccc3c3nc4ccccc4nc23)O1 (stereo not drawn)

- emission maximum (in C1CCOC1): 650 nm
SMILES: C(=C\c1c2ccccc2cc2ccccc12)/c1c2ccccc2cc2ccccc12

- emission maximum (in ClCCl): 455 nm
SMILES: Brc1ccc(/C=C/c2cnc3ccccc3n2)cc1

- emission maximum (in ClC(Cl)Cl): 453 nm
SMILES: COc1ccc(-c2cc(-c3ccc(N(C)C)cc3)nc(-c3ccccc3)n2)cc1

- emission maximum (in ClCCl): 515 nm
SMILES: CCCCCCN1C(=O)c2cccc3c(-c4ccc(-c5cc(-c6cccc7ccccc67)nn5-c5ccccc5)s4)ccc(c23)C1=O

- emission maximum (in C1CCOC1): 332 nm
SMILES: F[Si](c1ccccc1)(c1ccccc1)c1cccc2ccccc12

- emission maximum (in ClCCl): 750 nm
SMILES: CCCCCCOc1cc(N(CC)CC)ccc1/C=C(\C#N)c1ccc(/C=C/C(=C(C#N)C#N)c2ccc(N(c3ccccc3)c3ccccc3)cc2)s1

- emission maximum (in ClCCl): 378 nm
SMILES: c1ccc(-n2c3ccccc3c3cc(-n4ccc5cc(-c6ccc7c(c6)C(c6ccccc6)(c6ccccc6)c6ccccc6-7)ccc54)ccc32)cc1

- emission maximum (in ClCCl): 384 nm
SMILES: C[Si]1(C)c2ccccc2-c2cc3c(cc21)-c1ccccc1[Si]3(C)C

- emission maximum (in CC#N): 550 nm
SMILES: COc1ccc(-c2csc(/C(C#N)=C/c3c(Cl)cccc3Cl)n2)cc1

- emission maximum (in C1CCOC1): 442 nm
SMILES: N#Cc1c(N2CCCCC2)cc(-c2cccc3ccccc23)c2c1-c1ccccc1C2

- emission maximum (in ClC(Cl)Cl): 714 nm
- emission maximum (in ClCCl): 714 nm
SMILES: COc1ccc(C2=[N+]3C(=Nc4c(-c5ccccc5)c(Br)c(-c5ccc(OC)cc5)n4[B-]3(F)F)C(c3ccccc3)=C2Br)cc1

- emission maximum (in C1CCOC1): 449 nm
SMILES: c1ccc(-c2cnc3nn4ccccc4c3n2)cc1

- emission maximum (in ClCCl): 527 nm
SMILES: CCCCCCCCCCCCN1C(=O)c2c(c3ccc4cc(-c5ccc(-c6ccccc6)cc5)c(OC)cc4c3c3c2ccc2cc(-c4ccc(-c5ccccc5)cc4)c(OC)cc23)C1=O

- emission maximum (in ClCCl): 439 nm
SMILES: CCN(CC)c1ccc2c(c1)oc(=O)c1c(C)nc3c(cnn3-c3ccccc3)c12

- emission maximum (in C1CCCCC1): 447 nm
- emission maximum (in C1CCOC1): 518 nm
- emission maximum (in CC#N): 565 nm
- emission maximum (in CS(C)=O): 568 nm
- emission maximum (in ClCCl): 534 nm
SMILES: c1ccc(N(c2ccccc2)c2ccc(-c3nc(-c4ccc(N(c5ccccc5)c5ccccc5)cc4)c4ccccc4n3)cc2)cc1
